Structures are written as SMILES. Where “and” joins values, the source holds several entries; their conditions need not be identical. Equal entries are not always repeated. ± gives the expanded uncertainty stated by the source.

The conditions of the data set: Pendant drop shape.

Regarding `O` [water], the surface tension liquid-gas reads like this: (283.2 K) 74.8 ± 2.3 mN/m and 74.83 ± 2.1 mN/m; (288.2 K) 73.65 ± 2.3 mN/m and 73.67 ± 2.1 mN/m; (293.2 K) 73.07 ± 2.1 mN/m and 73.03 ± 2.1 mN/m; (298.2 K) 72.21 ± 2.2 mN/m and 72.13 ± 2.1 mN/m.

For the origin of these results see the NIST ThermoML archive (doi:10.1016/j.jct.2017.01.007).
